Publication PMC4433263, “Identification of Rv3852 as an Agrimophol-Binding Protein in Mycobacterium tuberculosis” (PLoS ONE, 2015)

Biological target: T1, Rv3852 (Mycobacterium tuberculosis, UniProt I6YHB0)
T1 construct: gene hns
Test: ITC; supported by competitive EMSA with proU2 DNA
Assay type: binding

T1 sequence (I6YHB0 2-134 limits assumed): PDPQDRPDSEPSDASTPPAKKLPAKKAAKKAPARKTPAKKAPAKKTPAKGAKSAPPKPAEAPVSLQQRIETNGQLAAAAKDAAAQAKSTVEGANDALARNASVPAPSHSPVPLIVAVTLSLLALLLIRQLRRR

Which Kd does the source give for `C#CCOc1c(C)c(O)c(Cc2c(O)c(C)c(O)c(C(=O)C(C)CC)c2O)c(O)c1C(=O)CCC` (centres unmarked) [a1] here?
Its Kd is 22 µM.

With `CCCC(=O)c1c(O)c(CC2(C)C(=O)C(C(=O)C(C)CC)=C(O)C(C)=C2O)c(O)c(C)c1OC` (centres unmarked) [agrimophol] as the compound, how does the Kd read?
Its Kd is 34 µM.
